The values below come from patent US6177474A, “Polyhydroxyphenol derivatives and preventive and therapeutic agents for bone and cartilage diseases containing the same” (Hoechst Marion Roussel, priority 1996, dated 2001).

In this assay the test system is bone cells containing osteoclast cells. As to the kind of experiment: Pit formation assay: inhibition of osteolysis (absorption pits on ivory slices). It is filed as cell-based, ICR mice. Conditions: 72 h; for No. of absorption pits (Mean ± SD): 10 µM; for inhibition at 10 µM: Mus musculus, Osteoclast, compound 10^-5 M, 0% = pits with rPTH (1×10^-8 M) without medicine, 100% = no absorption pit, read-out: Ratio of inhibition (%). On the procedure:
ICR mice 11-12 days old (purchased from Charles River Japan) were euthanized by anesthesia with ether and immediately immersed in 70% ethanol for disinfection. By the use of ophthalmologist scissors and pincers sterilized in advance with ethanol, femur and tibia were excised from the sacrificed mice and chopped into small pieces in an α-MEM culture medium (purchased from Flow Laboratories Corp.). containing 5% FBS (purchased from Irvine Scientific Corp.), 100 U/ml penicillin and 100 μg/ml streptomycin. The supernatant formed consequently was recovered by pipeting, cleaned with the culture broth, and suspended in a 5% FBS α-MEM culture broth to obtain bone cells containing osteoclast cells. The supernatant of a bone cell-floating liquid formed after 3 minutes' standing of the bone cells at rest was recovered and passed through a mesh (cell strainer, 70 μm, purchased from Falcon Corp.). The filtrate was adjusted to a cell concentration of 1×10^7 /ml and used for the pit formation assay.
An ivory piece was cut into slices, 150 μm in thickness, by the use of a precision low-speed cutting machine (purchased from Buehler Corp.). Cylindrical holes, 6 mm in diameter, were perforated in the slices by the use of a one-hole punch. The ivory slices were immersed in 70% ethanol and subjected therein to an ultrasonic cleaning treatment twice each for five minutes and washed three times with a sterilized PBS and twice with the culture medium. The ivory slices were set in place on a 96-hole culture plate (purchased from Falcon Corp.). The perforated ivory slices on the culture plate, with a culture broth containing a given compound of the present invention prepared in a concentration of 2×10^-5 M added in a fixed volume of 100 μl (final medicine concentration 1×10^-5 M) to each of the holes and a culture broth containing prepared bone cells in a concentration of 1×10^7 /ml placed in each of the holes, were cultured for three days in a 10% CO2 incubator at 37° C. After the culture, the ivory slices were placed in an aqueous 2 N sodium hydroxide and the cells on the slices were removed by the use of a rubber spatula. The ivory slices were washed with water and methanol. The absorption pits formed in the ivory slices were dyed with Coomassie Brilliant Blue and were counted under a microscope. Though the numbers of absorption pits were naturally found to disperse among test lots, depending on the ratios of varying specie s of cells in the bone cell suspensions and the lots of animals used, satisfactorily uniform test results were found in one and the same test lot. The ratio of inhibition of osteolysis was calculated on the 100% scale, in which 0% stands for the number of absorption pits found in the culture broth in the presence of rPTH (1×10^-8 M) and in the absence of a medicine and 100% for total absence of absorption pit.
The test described above was performed in a total of ten runs, Tests 1-10.
In the columns titled "Added medicine No." found in Table 2 and Table 3, the symbol (-) denotes a control involving no addition of medicine and the numerical No. denotes the No. of the compound mentioned above.

For the compound `CC(C)CCc1c(O)c(CCC(C)C)c(O)c(C(=O)CC(C)C)c1O` [Compound 37, {3,5-bis(3-methylbutyl)-2,4,6-trihydroxyphenyl} (2-methylpropyl) ketone], the “No. of absorption pits (Mean ± SD)” value is reported as 14.4 ± 4.9 and the inhibition at 10 µM turned out to be 91.1%.
On to `CC(C)=CCCC(C)=CCc1c(O)cc(O)c(C(=O)Cc2ccccc2)c1O` [Compound 46, {3-(3,7-dimethyl-2,6-octadienyl)-2,4,6-trihydroxyphenyl} (phenylmethyl) ketone], for which the “No. of absorption pits (Mean ± SD)” value is listed as 125.3 ± 12.6 and the inhibition at 10 µM turned out to be 44.3%.
`CC(C)CCCC(C)CC(=O)c1c(O)cc(O)cc1O` (stereo not shown) [Compound 6, (2,6-dimethylheptyl) (2,4,6-trihydroxyphenyl) ketone]: the “No. of absorption pits (Mean ± SD)” value amounted to 63.4 ± 12.4 and the inhibition at 10 µM was 61.4%.
As for `CC(=O)C1=C(O)C(CC=C(C)C)=C(O)C(O)(CC=C(C)C)C1=O` (stereo not shown) [Compound 30, 2,4-bis(3-methyl-2-butenyl)-6-(1-oxoethyl)-2,3,5-trihydroxycyclohexa-3,5-dienone], the “No. of absorption pits (Mean ± SD)” value is given as 21.4 ± 3.9 and the inhibition at 10 µM was 78.2%.
Consider `CC(C)=CCc1c(O)c(O)c(CC=C(C)C)c(C(=O)CC(C)C)c1O` [Compound 25, {3,6-bis(3-methyl-2-butenyl)-2,4,5-trihydroxyphenyl} (2-methylpropyl) ketone], for which the “No. of absorption pits (Mean ± SD)” value came to 0 and the inhibition at 10 µM was determined as 100%.
As for `CC(C)=CCC1(CC=C(C)C)C(=O)C(C(=O)CC(C)CCCC(C)C)=C(O)C=C1O` (stereo not shown) [Compound 24, 2,2-bis(3-methyl-2-butenyl)-3,5-dihydroxy-6-(3,7-dimethyl-1-oxooctyl)cyclohexa-3,5-dienone], the “No. of absorption pits (Mean ± SD)” value is listed as 39.3 ± 13.9 and the inhibition at 10 µM stood at 75.8%.
With `CC(C)=CCc1c(O)c(CC=C(C)C)c(O)c(C(=O)CC(C)C)c1O` [Compound 15, {3,5-bis(3-methyl-2-butenyl)-2,4,6-trihydroxyphenyl} (2-methylpropyl) ketone], the “No. of absorption pits (Mean ± SD)” value was determined as 8.3 ± 2.4 and the inhibition at 10 µM was determined as 89.6%.
Consider `CC(C)CC(=O)c1ccc(O)cc1O` [Compound 52, (2,4-dihydroxyphenyl)(2-methylpropyl) ketone], for which the “No. of absorption pits (Mean ± SD)” value is on record as 94.3 ± 13.8 and the inhibition at 10 µM amounted to 44.9%.
In the case of `CC(C)=CCc1c(O)cc(O)c(C(=O)C(C)C)c1O` [Compound 14, {3-(3-methyl-2-butenyl)-2,4,6-trihydroxyphenyl} (2-propyl) ketone], the “No. of absorption pits (Mean ± SD)” value stood at 26.0 ± 2.6 and the inhibition at 10 µM amounted to 67.5%.
Turning to `CC(C)=CCc1c(O)c(O)cc(C(=O)CC(C)C)c1O` [Compound 26, {3-(3-methyl-2-butenyl)-2,4,5-trihydroxyphenyl} (2-methylpropyl) ketone], the “No. of absorption pits (Mean ± SD)” value is 29.3 ± 4.8 and the inhibition at 10 µM is 85.5%.
Turning to `CC(C)=CCC1(CC=C(C)C)C(=O)C(C(=O)Cc2ccccc2)=C(O)C=C1O` [Compound 41, 3,5-dihydroxy-6-(phenylacetyl)-2,2-bis(3-methyl-2-butenyl)cyclohexa-3,5-dienone], the “No. of absorption pits (Mean ± SD)” value is reported as 3.2 ± 0.7 and the inhibition at 10 µM turned out to be 97.4%.
As to `CC(C)=CCc1c(O)cc(O)c(C(=O)Cc2ccccc2)c1O` [Compound 42, {3-(3-methyl-2-butenyl)-2,4,6-trihydroxyphenyl} (phenylmethyl) ketone], the “No. of absorption pits (Mean ± SD)” value is listed as 31.7 ± 3.6 and the inhibition at 10 µM was 74.7%.
For `CC(C)=CCc1c(O)cc(O)c(C(=O)CC(C)C)c1C` [Compound 50, {4,6-dihydroxy-2-methyl-3-(3-methyl-2-butenyl)phenyl} (3-methylpropyl) ketone] the same measures were 40.1 ± 7.0 and 80.1%.
As to `CC(C)=CCCC(C)=CCc1c(O)c(CC=C(C)CCC=C(C)C)c(O)c(C(=O)CC(C)C)c1O` [Compound 19, {3,5-bis(3,7-dimethyl-2,6-octadienyl)-2,4,6-trihydroxyphenyl} (2-methylpropyl) ketone], the “No. of absorption pits (Mean ± SD)” value is given as 55.3 ± 6.1 and the inhibition at 10 µM was determined as 70.5%.
